From publication PMC9138994 (Biomolecules, 2022) come the findings set out here.

The assay deals with C57BL/6 mice. The assay is described as follows: Tail suspension test (TST). As to conditions: acute i.p. pretreatment, ST-2300 10 or 15 mg/kg, PIM 5–15 mg/kg, FLX 10 mg/kg, vs saline controls, C57BL/6 mice, 6 min. Type of assay: in vivo. As for the experimental part: Inbred adult male C57BL/6 mice (aged 10–12 weeks and weighing 20–25 g) were obtained from the animal facility in the College of Medicine and Health Sciences, United Arab Emirates University. The animals were maintained in a separate air-conditioned room with controlled temperature and humidity (24 ± 2 °C and 55 ± 15%, respectively), with a 12 h light/dark cycle, and ad libitum to food and water. All the experiments were performed between 9.00 am and 3.00 pm. The procedures were approved by the Institutional Animal Ethics Committee of College of Medicine and Health Sciences/United Arab Emirates University (Approval No. ERA-2019-6010). To reduce the suffering of the animals, a minimum number of animals were used in this study, whereas the objectives were not compromised.
These experiments provide the first behavioral assessment of the ST-2300 in anxiety-like and depression-like behaviors in mice. All doses are expressed in terms of the free base of all test compounds. The drugs used in the current study were dissolved in saline and injected i.p. at a volume of 1 mL/kg. All experimental procedures were conducted in a blinded fashion in which the experimenter was uninformed about the specific treatment groups to which an animal group belonged. Saline, ST-2300 (5, 10, and 15 mg/kg), PIM (5, 10, and 15 mg/kg), FLX (10 mg/kg), RAM (10 mg/kg), and DZP (1 mg/kg) were injected i.p. 30–45 min before the beginning of the behavioral experiments.
This experimental protocol was followed as previously described, however with slight modifications. Each mouse was suspended on the edge of a rod 50 cm above a table top using adhesive Scotch tape placed approximately 1 cm from the tip of the tail. Tail climbing was prevented by passing the mouse’s tail through a small plastic cylinder prior to suspension, as described by Can et al.. The duration of immobility was manually scored for a 6 min observation period. Mice were considered immobile only when they hung down passively and were completely motionless. The parameter recorded was the number of seconds spent immobile.

For the compound `CNCCC(Oc1ccc(C(F)(F)F)cc1)c1ccccc1` (stereo not shown) [FLX, fluoxetine, reference compound], the “immobility time in TST” value is “significant differences between FLX and saline controls”.
